# Laboratory results from patent US6528653B2, “Thienopyrrolidinones” (Hoffmann-La Roche, Inc., priority 2000, dated 2003).
# Tested on: LPS-induced TNF-α production in THP-1 cells
# Test: Inhibition of LPS-induced TNF-α production in THP-1 cells (TNF-α ELISA)
# Format: cell-based
# Details: Homo sapiens, 30 min preincubation with compound, LPS 4 hours, TNF-α in supernatant by ELISA, percentage of DMSO control
# Protocol: The assay uses a modification of the methods described in Blifield et al., Transplantation, 51:498-503 (1991).
# (a) Induction of TNF Biosynthesis
# THP-1 cells were suspended in serum free culture medium LGM-3 (Clonetics, Bio Whittaker, UK, Cat. No. CC-3211), at a concentration of 5×10^5 cells/ml and then plated in 96 well-plates (0.2 ml aliquots in each well). Test compounds were dissolved in DMSO and then diluted with the culture medium such that the final DMSO concentration was 1%. Twenty five μl aliquots of test solution or only medium with DMSO (control) were added to each well giving a final DMSO concentration of 0.1%. The cells were incubated for 30 min. at 37° C. LPS (Sigma Chemical Company, UK) was added to the wells at a final concentration of 2 μg/nml, and cells were incubated for an additional 4 hours. At the end of the incubation period, culture supernatants were collected and the amount of TNF-α present was determined using a commercial TNF-α ELISA assay as described below.
# (b) ELISA Assay. Quantikine™ human TNF-α (R&D Systems Europe Ltd., UK) (Cat. No. DTA50 in 2000)
# The assay was carried out according to the manufacturer's instructions with the following modifications. Assay plates were centrifuged at 200 g and a 200 μl sample added to each well. TNF-α standard was made up and diluted in LGM-3 culture medium. Samples in the ELISA plate were then incubated overnight at 4° C. instead of 2 hours at 37° C. TNF-α production for each condition was calculated and expressed as a percentage of DMSO control to enable IC50 calculation.
row,Compound,IC50 [nM]
1,"O=C1Nc2sccc2/C1=C/c1ccc[nH]1 [Example 1, (Z)-4,6-Dihydro-4-[(1H-pyrrol-2yl)methylene]thieno[2,3-b]pyrrol-5-one]",5080
2,"O=C1Nc2sccc2/C1=C/c1c[nH]nc1-c1ccccc1 [Example 9, (Z)-4,6-Dihydro-4-[(3-phenyl-1H-pyrazol-4-yl)methylene]-thieno[2,3-b]pyrrol-5-one]",1100
3,"COc1cc[nH]c1/C=C1\C(=O)Nc2sccc21 [Example 13, (Z)-4,6-Dihydro-4-[(3-methoxy-1H-pyrrol-2-yl)methylene]-thieno[2,3-b]pyrrol-5-one]",1590
4,"N#Cc1cc2c(s1)NC(=O)/C2=C\c1ccc[nH]1 [Example 20, (Z)-5,6-Dihydro-5-oxo-4-[(1H-pyrrol-2-yl)methylene]-4H-thieno[2,3-b]pyrrole-2-carbonitrile]",3690
